Test results: patent US9499790B2, “Method for promoting differentiation of pluripotent stem cells into cardiac muscle cells” (Kyoto University, priority 2010, dated 2016)

Experiments:
Format in all cases: cell-based
Human iPS (IMR90-1) = assay: Number of beating colonies of cardiac muscle cells; conditions: KY02111 5 μM during day 4 to 14
Protocol: The effect of promoting differentiation of each of the ES/iPS cells into cardiac muscle cells were confirmed for N11474 and KY02111 with the GFP expression level and number of beating colonies used as the indicators. Human ES cell line (Kh-1 line) (Suemori, H., et al., Efficient establishment of human embryonic stem cell lines and long-term maintenance with stable karyotype by enzymatic bulk passage. Biochem Biophys Res Commun. 345(3), 926-32 (2006)) (incorporated herein by reference) was seeded in a 6-well plate (Asahi Glass/5816-006: Ezview culture plate) in 1.2×10^6 cells/well and cultured for 22 days, with BMP4 (10 ng/ml) added during day 0 to 4 of culture and N11474 (10 μM) or KY02111 (5 μM) added during day 4 to 14 of culture. […] KY02111 (5 μM) was added for 3 days during day 6 to 9 of cardiac muscle cell differentiation culture and the beating colonies of cardiac muscle cells were analyzed at day 9. […] The effect of BIO, a Wnt signaling activator, on the effect of promoting cardiac muscle cell differentiation of KY02111, XAV939 and IWP2 was analyzed. […] The synergistic effects between KY02111 and a known Wnt signaling inhibitor XAV939 or IWP2 in the promotion of cardiac muscle cell differentiation were analyzed.

[1] = tested on: Wnt signaling target genes in human iPS cells; assay: Gene expression analysis by DNA array and quantitative polymerase chain reaction; parameters: expressions of genes by DNA array (HOXA1, MSGN1, NKD1, T, TNFRSF11B, DKK1, DKK4, CDX2, MSX1, NODAL, FGF4 and others): dose or concentration left out as unconfirmed
Protocol: (in the order of the genes whose expression were reduced most 12 hours later) HOXA1, MSGN1, NKD1, T, TNFRSF11B, DKK1, DKK4, CDX2, MSX1, NODAL, FGF4, PAPPA, PRRX1, LRAT, CYP1B1, SLC34A2, AXIN2, LGL1, SPS, MIXL1, APCDD1 and DSEL. […] The analyzed genes were as follows: MSGN1, HOXA1; T, MIXL1; Dkk1, AXIN2; NODAL and FGF4 (all known as Wnt signaling target genes).

Monkey ES cells = assay: Cardiac muscle cell differentiation of monkey ES cells, 6-well plate, GFP expression observed at day 14
From the text: In the same manner as Example 2, the effects of promoting cardiac muscle cell differentiation were compared among KY02111 and N11474, known Wnt signaling inhibitors (IWP2, XAV939 and IWR1), proteins known to be effective in promoting cardiac muscle cell differentiation (G-CSF, IGFBP4, Dkk1 and cytokines (a mixture of bFGF, BMP4, VEGF, DKK1 and Activin A)).
The effect of BIO, a Wnt signaling activator, on the effect of promoting cardiac muscle cell differentiation of KY02111, XAV939 and IWP2 was analyzed. […]

Human iPS (253G1) = assay: Number of beating colonies of cardiac muscle cells; conditions: KY02111 5 μM during day 4 to 14
Protocol: (§1) The effect of promoting differentiation of each of the ES/iPS cells into cardiac muscle cells were confirmed for N11474 and KY02111 with the GFP expression level and number of beating colonies used as the indicators. Human ES cell line (Kh-1 line) (Suemori, H., et al., Efficient establishment of human embryonic stem cell lines and long-term maintenance with stable karyotype by enzymatic bulk passage. Biochem Biophys Res Commun. 345(3), 926-32 (2006)) (incorporated herein by reference) was seeded in a 6-well plate (Asahi Glass/5816-006: Ezview culture plate) in 1.2×10^6 cells/well and cultured for 22 days, with BMP4 (10 ng/ml) added during day 0 to 4 of culture and N11474 (10 μM) or KY02111 (5 μM) added during day 4 to 14 of culture. Human iPS cell lines (253G1, IMR90-1, IMR90-4 and RCHIPC0003) (Takahashi, K., et al., Induction of pluripotent stem cells from adult human fibroblasts by defined factors. Cell. 131(5), 861-72 (2007); Yu, J., et al., Induced pluripotent stem cell lines derived from human somatic cells. Science. 318(5858), 1917-20 (2007)) (these references are herein incorporated by reference) were cultured for the cardiac muscle cell differentiation in the same manner as for the human ES cells. The cardiac muscle cells from mouse ES cells (R1) were differentiated in accordance with the method described in the reference (Transient inhibition of BMP signaling by Noggin induces cardiomyocyte differentiation of mouse embryonic stem cells. Yuasa S, et al. Nat. Biotechnol. 2005 May; 23(5): 607-11; incorporated herein by reference). KY02111 (5 μM) was added for 3 days during day 6 to 9 of cardiac muscle cell differentiation culture and the beating colonies of cardiac muscle cells were analyzed at day 9. Monkey ES cells (CMK6.4) were cultured for cardiac muscle cell differentiation in the same manner as in the above (2).

Monkey ES cells (CMK6.4) = assay: Number of beating colonies of cardiac muscle cells; conditions: Monkey ES (CMK6.4)
Protocol: as §1

Human iPS (RCHIPC0003) = assay: Number of beating colonies of cardiac muscle cells; conditions: KY02111 5 μM during day 4 to 14
Protocol: as §1

mouse ES cells (R1) = assay: Number of beating colonies of cardiac muscle cells; conditions: KY02111 5 μM during day 6 to 9, analyzed at day 9
Protocol: as §1

[2] = KY02111 5 μM during day 4 to 8, singly

With `COc1ccc(CCC(=O)Nc2nc3ccc(Cl)cc3s2)cc1OC` [KY02111, 2-(3-(3,4-dimethoxyphenyl)propanamide)-6-chlorobenzothiazole] the “Beating cardiac muscle cell differentiation efficiency (Control (DMSO) = 100%)” value (Human iPS (IMR90-1)) was 6100% (KY02111), the “expressions of genes by DNA array (HOXA1, MSGN1, NKD1, T, TNFRSF11B, DKK1, DKK4, CDX2, MSX1, NODAL, FGF4 and others)” value ([1]; 12 hours and 24 hours after the addition) was “reduced” and the “expressions of MSGN1, HOXA1, T, MIXL1, Dkk1, AXIN2, NODAL and FGF4 (Wnt signaling target genes) by qPCR” value ([1]; FIG. 9) was “reduced”. The “expression of MSGN1, HOXA1, T, Dkk1 and FGF4 by qPCR” value ([1]; confirmation of DNA array, FIG. 8) was “same results as the DNA array analysis”, the “increase in the GFP expression level” value (Monkey ES cells; 10 μM during day 4 to 10, GFP at day 14) was 7400% and the “effect of promoting cardiac muscle cell differentiation (GFP expression), comparison with Wnt signaling inhibitors and proteins” value (Monkey ES cells; 10 μM during day 4 to 10, GFP at day 14, FIG. 10) was “strongest effect of promoting cardiac muscle cell differentiation”. The “effect of BIO on the compound's effect of cardiac muscle cell differentiation (GFP expression)” value (Monkey ES cells; BIO 5 μM added together with the compound during day 4 to 10, GFP at day 14) was “did not inhibit”, the “increase in the GFP expression level versus Control (DMSO)” value (Monkey ES cells; [2]) was “about 30 times” and the “proportion of beating colonies” value (Monkey ES cells; [2]) was “about 30%”. For the same molecule, the “ratio of number of GFP colonies” value (Monkey ES cells; [2]) was ~73%, the “Beating cardiac muscle cell differentiation efficiency (Control (DMSO) = 100%)” value (Human iPS (253G1)) was 1500% (KY02111) and the “Beating cardiac muscle cell differentiation efficiency (Control (DMSO) = 100%)” value (Monkey ES cells (CMK6.4)) was 1850% (KY02111). For the same molecule, the “Beating cardiac muscle cell differentiation efficiency (Control (DMSO) = 100%)” value (Human iPS (RCHIPC0003)) was 100% (KY02111) and the “Beating cardiac muscle cell differentiation efficiency (Control (DMSO) = 100%)” value (mouse ES cells (R1)) was 200% (KY02111).
